Test results reported in US20240208898A1, “ENAMINE N-OXIDES: SYNTHESIS AND APPLICATION TO HYPOXIA-RESPONSIVE PRODRUGS AND IMAGING AGENTS” (DANA-FARBER CANCER INSTITUTE, INC., priority 2021, published 2024).
“Also recorded” adds a separate entry of the source.

Tested on: BxPC-3 xenografts
Experiment: Immunofluorescence tissue staining of tumor slices
Type: in vivo, mice
Experimental: All animal experiments were performed according to procedures and protocols approved by the Dana-Farber Cancer Institute Institutional Animal Care and Use Committee. Bx-PC3 cells were grown to confluency in antibiotic-free RPMI supplemented with 10% FBS, trypsinized, and washed three times with ice cold PBS (50 mL). Cells were resuspended in PBS at a concentration of 1.0×10^7 cells per 100 μL. 8-week old, female, homozygous NU/J mice (Jackson Laboratory) were subcutaneously injected with 1.0×10^7 Bx-PC3 cells over the right hind flank under isoflurane anesthesia. Experiments were performed when tumors reached 1000 mm^3 in size.
Mice were intraperitoneally injected with a 200 μL bolus of 25.8 mM pimonidazole and enamine N-oxide probe in 0.9% saline. Two min prior to sacrifice, mice were intravenously injected with 15 mg/kg Hoechst 33342 in 100 μL of PBS. After 1 hour, mice were sacrificed by cervical dislocation under isoflurane anesthesia. Tumors were resected and fixed in 4% paraformaldehyde in PBS for 24 hours at 4° C. with shaking. Tumors were then stored in 70% ethanol/water and submitted to the Rodent Histopathology Core at the Dana-Farber/Harvard Cancer Center for paraffin sectioning and H&E staining on glass slides. Paraffin embedded slices on glass slides were first rehydrated by successively immersing in xylenes twice for 10 minutes, 100% ethanol twice for 10 minutes, 95% ethanol/water once for 5 minutes, 70% ethanol/water for 5 minutes, 50% ethanol/water for 5 minutes, water three times for 20 seconds, and ice cold PBS+0.3% Triton X-100 once for 10 minutes. For slices to be stained by HIF1α and CD31, slides were then incubated at 90° C. in 10 mM citrate, pH 6.0 for 15 minutes. After 15 minutes, the solution was removed from heat and allowed to cool to room temperature. […] Slices were then imaged using a widefield fluorescence inverted microscope (Nikon Ti Eclipse) at the Dana-Farber Confocal and Light Microscopy Core according to the settings listed in the “General biological instrumentation” section.

For `C#CCN(CCCCCC(F)/C=C/[N+]([O-])(CC)CC)C(=O)c1ccc(C2=c3cc4c(cc3[Si](C)(C)c3cc5c(cc32)CCN5C)=[N+](C)CC4)c(C)c1` (stereo not drawn) [probe 42, Si700-enamine N-oxide], the “co-localization with pimonidazole in tumor tissue slices” value (tumor of mouse imaged by NIR probe, CuAAC fluorescent labeling) was “robust co-localization”.

For `C#CCCCCC(F)/C=C/[N+]([O-])(CC)CC` (stereo not drawn) [probe 39, (E)-N,N-diethyl-3-fluoronon-1-en-8-yn-1-amine oxide], the “localization in tumor tissue slices vs CD31 endothelial cell marker” value (intraperitoneal, CD31, DAPI) was “vasculature is primarily localized in regions distal to regions that are labeled well by enamine N-oxide 39 staining” and the “localization in tumor tissue slices vs hypoxia markers” value (intraperitoneal, markers GLUT1, HIF1α, CAIX, pimonidazole) was “strong correlation; also recorded: co-localized with the GLUT1 and pimonidazole hypoxia markers”.
